# Results published in patent publication US20110183954A1, “TRICYCLIC 2,4-DIAMINO-L,3,5-TRIAZINE DERIVATIVES USEFUL FOR THE TREATMENT OF CANCER AND MYELOPROLIFERATIVE DISORDERS” (ASTRAZENECA AB, priority 2008, published 2011).
# How the values were obtained:
# Assay type in all cases: biochemical
# [1] = molecular target: T1, JAK1 (Homo sapiens, UniProt P23458); experiment: Method 1 (JAK1): mobility shift assay on Caliper LC3000 reader; conditions: 3.5 nM JAK1 enzyme, 5 mM ATP, 90 minutes, room temperature; read-out: IC50 (JAK inhibitory activity, Method 1 (JAK1))
# T1 construct: catalytic domain (amino acids 866-1154), GST-tagged, expressed in insect cells; GST; purchased Invitrogen; host or cells: insect cells
# Description: (§1) Janus kinase 1 (JAK1) activity may be determined by measuring the kinase's ability to phosphorylate a tyrosine residue within a peptide substrate using a mobility shift assay on a Caliper LC3000 reader (Caliper, Hopkinton, Mass.), which measures fluorescence of the phosphorylated and unphosphorylated substrate and calculates a ratiometric value to determine percent turnover.
# To measure JAK1 kinase activity, a commercially available purified enzyme may be used. The enzyme may be a recombinant human, catalytic domain (amino acids 866-1154), GST-tagged, expressed in insect cells (Invitrogen, Carlsbad, Calif.). After incubation of the kinase with a FITC labeled JAK1 substrate, adenosine triphosphate (ATP), and MgCl2 for 90 minutes at room temperature, the kinase reaction may be stopped by the addition of 36 mM ethylenediaminetetraacetic acid (EDTA). The reaction may be performed in 384 well microtitre plates and the reaction products may be detected using the Caliper LC3000 Reader.
# [2] = molecular target: T2, human JAK2 (Homo sapiens, UniProt O60674); experiment: Method 2 (JAK2): mobility shift assay on Caliper LC3000 reader, 5 mM ATP; set-up: human JAK2 (amino acids 831-1132, PLAZA database pAZB0359) expressed in insect cells; GST (N); made in house; host or cells: insect cells; conditions: 0.3 nM JAK2 enzyme, 90 minutes, read-out: IC50 (JAK inhibitory activity, Method 2 (JAK2))
# Description: as §1, with “Alternatively, Janus” for “Janus”, “2 (JAK2)” for “1 (JAK1)”
# (§2) To measure JAK2 kinase activity, an in-house purified enzyme may be used. The enzyme may be a N-terminal GST-tagged, recombinant, human JAK2 (amino acids 831-1132, PLAZA database pAZB0359) expressed in insect cells. After incubation of the kinase with a FAM labeled SRCtide substrate, adenosine triphosphate (ATP), and MgCl2 for 90 minutes at room temperature, the kinase reaction may be stopped by the addition of 36 mM ethylenediaminetetraacetic acid (EDTA). The reaction may be performed in 384 well microtitre plates and the reaction products may be detected using the Caliper LC3000 Reader.
# Target sequence in this assay (O60674 831-1132): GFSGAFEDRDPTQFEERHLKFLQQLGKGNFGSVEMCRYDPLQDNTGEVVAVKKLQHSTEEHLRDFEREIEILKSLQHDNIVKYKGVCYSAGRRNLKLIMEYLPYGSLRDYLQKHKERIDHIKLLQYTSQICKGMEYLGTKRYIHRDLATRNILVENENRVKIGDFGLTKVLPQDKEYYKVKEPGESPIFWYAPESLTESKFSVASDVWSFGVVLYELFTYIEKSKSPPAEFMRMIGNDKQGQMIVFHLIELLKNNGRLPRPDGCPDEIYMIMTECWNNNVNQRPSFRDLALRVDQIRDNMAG
# [3] = molecular target: T2, human JAK2; experiment: Method 3 (JAK2): mobility shift assay on Caliper LC3000 reader, 15 μM ATP; set-up: human JAK2 (amino acids 831-1132, PLAZA database pAZB0359) expressed in insect cells; GST (N); made in house; host or cells: insect cells; conditions: 0.5 nM JAK2 enzyme, 90 minutes, read-out: IC50 (JAK inhibitory activity, Method 3 (JAK2))
# Method: as §1, with “2 (JAK2)” for “1 (JAK1)”, “was” for “may be”
# as §2, with “enzyme was” for “enzyme may be”, “enzyme was” for “enzyme may be a”, “reaction was” for “reaction may be”, “products were” for “products may be”
# Target sequence in this assay (O60674 831-1132): as above
# [4] = molecular target: T2, human JAK2; experiment: Method 1 (JAK2): Amplified Luminescent Proximity Assay (Alphascreen); set-up: His6 (C); purchased Upstate Biotechnology; host or cells: baculovirus in Sf21 cells; conditions: 150 pM JAK2 enzyme, 5 mM ATP, 60 minutes, room temperature, read-out: IC50 (JAK inhibitory activity, Method 1 (JAK2))
# Description: JAK2 kinase activity may be determined by measuring the kinase's ability to phosphorylate synthetic tyrosine residues within a generic polypeptide substrate using an Amplified Luminescent Proximity Assay (Alphascreen) technology (PerkinElmer, 549 Albany Street, Boston, Mass.).
# To measure JAK2 kinase activity, a commercially available purified enzyme may be used. The enzyme may be a C-terminal His6-tagged, recombinant, human JAK2, amino acids 808-end, (Genbank Accession number NM 004972) expressed by baculovirus in Sf21 cells (Upstate Biotechnology MA). After incubation of the kinase with a biotinylated substrate and adenosine triphosphate (ATP) for 60 minutes at room temperature, the kinase reaction may be stopped by the addition of 30 mM ethylenediaminetetraacetic acid (EDTA). The reaction may be performed in 384 well microtitre plates and the reaction products may be detected with the addition of streptavidin coated Donor Beads and phosphotyrosine-specific antibodies coated Acceptor Beads using the EnVision Multilabel Plate Reader after an overnight incubation at room temperature.
# Target sequence in this assay (O60674 808-1132 limits assumed): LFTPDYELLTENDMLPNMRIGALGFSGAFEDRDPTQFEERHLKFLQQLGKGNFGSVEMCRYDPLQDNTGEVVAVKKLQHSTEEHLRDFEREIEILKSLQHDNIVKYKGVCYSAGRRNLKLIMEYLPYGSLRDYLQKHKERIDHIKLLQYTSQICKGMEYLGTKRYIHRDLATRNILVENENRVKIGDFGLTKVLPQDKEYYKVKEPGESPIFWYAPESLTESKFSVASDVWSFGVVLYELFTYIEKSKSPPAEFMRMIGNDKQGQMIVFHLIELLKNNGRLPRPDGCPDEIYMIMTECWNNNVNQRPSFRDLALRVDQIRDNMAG
# T1 sequence (P23458 866-1154): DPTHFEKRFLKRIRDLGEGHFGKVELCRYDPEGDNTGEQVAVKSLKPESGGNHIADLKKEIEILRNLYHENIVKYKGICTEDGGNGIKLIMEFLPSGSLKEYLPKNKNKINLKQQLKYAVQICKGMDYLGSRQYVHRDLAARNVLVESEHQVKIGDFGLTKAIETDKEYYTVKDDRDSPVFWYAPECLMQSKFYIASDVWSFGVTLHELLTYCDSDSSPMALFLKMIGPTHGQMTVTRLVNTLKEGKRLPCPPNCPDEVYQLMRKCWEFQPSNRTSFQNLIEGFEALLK
IC50 [1] [nM],IC50 [2] [nM],IC50 [3] [nM],IC50 [4] [nM],Structure (SMILES)
1020,1710,,,"Cn1cnc(Nc2nc(NC(CNC(=O)OC(C)(C)C)c3ccc(F)cc3)nc(N3CCOCC3)n2)c1 (single isomer, unassigned) [Example 24b, tert-Butyl [2-(4-fluorophenyl)-2-({4-[(1-methyl-1H-imidazol-4-yl)amino]-6-morpholin-4-yl-1,3,5-triazin-2-yl}amino)ethyl]carbamate]"
83,73,,,"Cn1cnc(Nc2nc(NC(CNC(=O)OC(C)(C)C)c3ccc(F)cc3)nc(N3CCOCC3)n2)c1 (single isomer, unassigned) [Example 24a, tert-Butyl [2-(4-fluorophenyl)-2-({4-[(1-methyl-1H-imidazol-4-yl)amino]-6-morpholin-4-yl-1,3,5-triazin-2-yl}amino)ethyl]carbamate]"
30000,> 30000,,,"Cn1cnc(Nc2nc(NC(c3ccc(F)cc3)c3nccn3C)nc(N3CCOCC3)n2)c1 (single isomer, unassigned) [Example 25b, N-[(4-Fluorophenyl)(1-methyl-1H-imidazol-2-yl)methyl]-N′-(1-methyl-1H-imidazol-4-yl)-6-morpholin-4-yl-1,3,5-triazine-2,4-diamine]"

# Further lines, the compound ahead of its results:
Structure (SMILES),IC50 [1] [nM],IC50 [2] [nM],IC50 [3] [nM],IC50 [4] [nM]
"[2H]C1([2H])OC([2H])([2H])C([2H])([2H])N(c2nc(Nc3cn(C)cn3)nc(NC(C)c3ncc(F)cc3F)n2)C1([2H])[2H] (single isomer, unassigned) [Example 11b, N-[1-(3,5-Difluoropyridin-2-yl)ethyl]-N′-(1-methyl-1H-imidazol-4-yl)-6-(^2H8)morpholin-4-yl-1,3,5-triazine-2,4-diamine]",15,21,,
"[2H]C([2H])([2H])n1cnc(Nc2nc(NC(C)c3ncc(F)cc3F)nc(N3C([2H])([2H])C([2H])([2H])OC([2H])([2H])C3([2H])[2H])n2)c1 (single isomer, unassigned) [Example 13a, N-[1-(3,5-Difluoropyridin-2-yl)ethyl]-N′-[1-(^2H3)methyl-1H-imidazol-4-yl]-6-(^2H8)morpholin-4-yl-1,3,5-triazine-2,4-diamine]",,,180,
"C[C@H](Nc1nc(Nc2cn(C)cn2)nc(N2CCOCC2)n1)c1ccc(F)cc1 [Example 30, N-[(1S)-1-(4-fluorophenyl)ethyl]-N′-(1-methyl-1H-imidazol-4-yl)-6-morpholin-4-yl-1,3,5-triazine-2,4-diamine]",65,,,< 3
"[2H]C([2H])([2H])n1cnc(Nc2nc(NC(C)c3ncc(F)cc3F)nc(N3CCOCC3)n2)c1 (single isomer, unassigned) [Example 12b, N-[1-(3,5-Difluoropyridin-2-yl)ethyl]-N′-[1-(^2H3)methyl-1H-imidazol-4-yl]-6-morpholin-4-yl-1,3,5-triazine-2,4-diamine]",,,< 3,
"[2H]C1([2H])OC([2H])([2H])C([2H])([2H])N(c2nc(Nc3cn(C)cn3)nc(NC(C)c3ncc(F)cc3F)n2)C1([2H])[2H] (single isomer, unassigned) [Example 11a, N-[1-(3,5-Difluoropyridin-2-yl)ethyl]-N′-(1-methyl-1H-imidazol-4-yl)-6-(^2H8)morpholin-4-yl-1,3,5-triazine-2,4-diamine]",780,986,,
"[2H]C([2H])([2H])n1cnc(Nc2nc(NC(C)c3ncc(F)cc3F)nc(N3C([2H])([2H])C([2H])([2H])OC([2H])([2H])C3([2H])[2H])n2)c1 (single isomer, unassigned) [Example 13b, N-[1-(3,5-Difluoropyridin-2-yl)ethyl]-N′-[1-(^2H3)methyl-1H-imidazol-4-yl]-6-(^2H8)morpholin-4-yl-1,3,5-triazine-2,4-diamine]",,,< 3,
"[2H]C([2H])([2H])n1cnc(Nc2nc(NC(C)c3ncc(F)cc3F)nc(N3CCOCC3)n2)c1 (single isomer, unassigned) [Example 12a, N-[1-(3,5-Difluoropyridin-2-yl)ethyl]-N′-[1-(^2H3)methyl-1H-imidazol-4-yl]-6-morpholin-4-yl-1,3,5-triazine-2,4-diamine]",,,138,
"Cn1cnc(Nc2nc(NC(c3ccc(F)cc3)C3CCCC3)nc(N3CCOCC3)n2)c1 (centres unmarked) [Example 27, N-[Cyclopentyl(4-fluorophenyl)methyl]-N′-(1-methyl-1H-imidazol-4-yl)-6-morpholin-4-yl-1,3,5-triazine-2,4-diamine]",1980,966,,
"C[C@H](Nc1nc(Nc2cn(C)cn2)nc(N2CCOCC2)n1)c1ccc(Cl)cc1 [Example 29, N-[(1S)-1-(4-Chlorophenyl)ethyl]-N′-(1-methyl-1H-imidazol-4-yl)-6-morpholin-4-yl-1,3,5-triazine-2,4-diamine]",510,,,4
